From patent US20220306695A1, “COMPSTATIN ANALOGUES AND THEIR MEDICAL USES” (priority 2019, published 2022)
Starred links: 1 amine or outer side, 2 acyl side, 3 side chain; linkers in the order of their positions; H or OH if unused. Positions of bridges follow the written chain, without caps; N, C: chain ends. Non-standard residues stand in square brackets, D forms with d. Residues, ends and D or L forms follow the SMILES beside them. Groups on a side chain read outwards from the residue. *: point of attachment. Trp(1-Me) = Cn1cc(C[C@H](N)C(=O)O)c2ccccc21; C16 diacid = O=C(O)CCCCCCCCCCCCCCC(=O)*; γGlu = O=C(O)[C@H](CCC(=O)[*:2])N[*:1]; AEEA = NCCOCCOCC(=O)O

Key:
[1] = system: classical complement pathway; assay: In vitro haemolysis assay (inhibition of classical complement pathway); assay type: cell-based, human; details: Table 3; human serum, sensitized sheep red blood cells; read-out: IC50[nM], in vitro analysis of inhibition of hemolysis
Procedure, shortened: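 Serially diluted compound (9 points) was preincubated 15 min at room temperature with diluted human serum, titrated per batch to give 70-90% maximal haemolysis, in Tris/casein buffer pH 7.4 with Mg2+/Ca2+. Antibody-sensitized sheep erythrocytes were then added for 30 min at 37° C, and the reaction was stopped with EDTA. Haemolysis was read at A405, with IC50 from 4PL fit.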

[2] = Solubility test at 10 mg/mL (visual inspection and light scattering); assay type: physicochemical
[3] = molecular target: Human C3 (human, UniProt P01024 23-1663); assay: cell-based or functional assay
Sequence of Human C3 (P01024 23-1663 limits assumed): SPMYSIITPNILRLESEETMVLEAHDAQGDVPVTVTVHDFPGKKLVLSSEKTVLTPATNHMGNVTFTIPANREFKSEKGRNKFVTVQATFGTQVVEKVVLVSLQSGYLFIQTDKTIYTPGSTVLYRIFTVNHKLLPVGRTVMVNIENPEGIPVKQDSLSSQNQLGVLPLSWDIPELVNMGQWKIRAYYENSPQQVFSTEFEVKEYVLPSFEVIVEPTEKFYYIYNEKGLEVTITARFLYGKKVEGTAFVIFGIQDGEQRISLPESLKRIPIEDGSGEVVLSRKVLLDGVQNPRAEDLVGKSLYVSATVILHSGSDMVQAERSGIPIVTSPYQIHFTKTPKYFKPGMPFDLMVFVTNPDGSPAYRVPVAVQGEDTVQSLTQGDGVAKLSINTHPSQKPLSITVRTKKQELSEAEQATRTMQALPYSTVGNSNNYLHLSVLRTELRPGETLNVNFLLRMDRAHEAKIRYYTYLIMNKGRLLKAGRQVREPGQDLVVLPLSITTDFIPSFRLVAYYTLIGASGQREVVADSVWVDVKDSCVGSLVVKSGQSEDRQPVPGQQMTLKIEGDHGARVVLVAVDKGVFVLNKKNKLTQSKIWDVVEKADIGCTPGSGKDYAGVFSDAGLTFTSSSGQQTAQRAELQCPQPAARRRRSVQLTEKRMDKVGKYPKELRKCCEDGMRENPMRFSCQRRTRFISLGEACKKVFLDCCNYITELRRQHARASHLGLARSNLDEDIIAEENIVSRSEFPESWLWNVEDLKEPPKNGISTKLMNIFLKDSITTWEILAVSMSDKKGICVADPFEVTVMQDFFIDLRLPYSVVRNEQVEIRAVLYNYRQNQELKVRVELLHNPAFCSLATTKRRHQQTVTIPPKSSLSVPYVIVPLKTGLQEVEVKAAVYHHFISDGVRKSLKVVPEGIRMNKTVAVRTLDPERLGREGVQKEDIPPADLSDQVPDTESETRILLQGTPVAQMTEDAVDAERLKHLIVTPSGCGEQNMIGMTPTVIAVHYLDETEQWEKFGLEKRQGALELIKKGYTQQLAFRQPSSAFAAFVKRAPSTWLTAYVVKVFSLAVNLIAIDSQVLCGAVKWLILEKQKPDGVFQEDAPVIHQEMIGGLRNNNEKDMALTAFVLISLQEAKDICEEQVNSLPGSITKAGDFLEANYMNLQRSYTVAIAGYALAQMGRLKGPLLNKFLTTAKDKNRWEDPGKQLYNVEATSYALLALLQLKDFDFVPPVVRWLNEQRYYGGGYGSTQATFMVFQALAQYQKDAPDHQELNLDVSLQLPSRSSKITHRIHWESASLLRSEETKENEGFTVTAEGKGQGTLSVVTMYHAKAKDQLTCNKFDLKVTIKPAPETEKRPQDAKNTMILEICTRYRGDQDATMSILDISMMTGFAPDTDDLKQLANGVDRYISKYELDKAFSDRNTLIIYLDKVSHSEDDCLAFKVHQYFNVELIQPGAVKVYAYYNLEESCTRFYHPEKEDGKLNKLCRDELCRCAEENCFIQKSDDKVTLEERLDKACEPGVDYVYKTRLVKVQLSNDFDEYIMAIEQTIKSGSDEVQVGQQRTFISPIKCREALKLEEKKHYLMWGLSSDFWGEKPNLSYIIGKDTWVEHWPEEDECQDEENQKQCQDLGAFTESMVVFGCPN

Molecule: CC[C@H](C)[C@@H]1NC(=O)[C@@H](NC(=O)[C@H](Cc2ccccc2)NC(C)=O)CSSC[C@@H](C(=O)N[C@H](C(=O)NCC(=O)N[C@@H](C)C(=O)N[C@@H](CCC(=O)O)C(=O)N[C@@H](CO)C(=O)N[C@@H](CCCCNC(=O)COCCOCCNC(=O)COCCOCCNC(=O)CC[C@H](NC(=O)CCCCCCCCCCCCCCC(=O)O)C(=O)O)C(N)=O)[C@@H](C)O)NC(=O)[C@H](CCCNC(=N)N)NC(=O)[C@H](Cc2c[nH]cn2)NC(=O)[C@H](CCC(=O)O)NC(=O)CNC(=O)[C@H](Cc2c[nH]c3ccccc23)NC(=O)[C@H](CC(=O)O)NC(=O)[C@H](CCC(N)=O)NC(=O)[C@H](Cc2cn(C)c3ccccc23)NC1=O [Compound 102] (Ac-FCI[Trp(1-Me)]QDWGEHRCTGAESK([AEEA-AEEA-γGlu-C16 diacid])-NH2; disulfide 2-12)
- IC50 [1]: < 100 nM
- Solubility, Condition 1 Acetate pH 4 ([2]; 10 mg/mL compound in 100 mM acetate pH 4): − (denotes lack of solubility at the given condition, as UV absorbance at 340 nm exceeds 0.1 AU and/or it is visibly turbid or contains particles.)
- Solubility, Condition 2 Acetate pH 5 ([2]; 10 mg/mL compound in 100 mM acetate pH 5): + (denotes solubility at the given condition, as determined by UV absorbance being less than 0.1 AU at 340 nm and the sample being clear when manually inspected.)
- Solubility, Condition 3 Phosphate pH 6 ([2]; 10 mg/mL compound in 100 mM phosphate pH 6): + (denotes solubility at the given condition, as determined by UV absorbance being less than 0.1 AU at 340 nm and the sample being clear when manually inspected.)
- Solubility, Condition 4 Phosphate pH 7 ([2]; 10 mg/mL compound in 100 mM phosphate pH 7): + (denotes solubility at the given condition, as determined by UV absorbance being less than 0.1 AU at 340 nm and the sample being clear when manually inspected.)
- Solubility, Condition 5 Phosphate pH 7.5 ([2]; 10 mg/mL compound in 100 mM phosphate pH 7.5): + (denotes solubility at the given condition, as determined by UV absorbance being less than 0.1 AU at 340 nm and the sample being clear when manually inspected.)

B1: Compound 95 (peptide)
peptide: ICIWQDWGEHRCTEGK
modifications: N-acetyl; C-terminal amide; disulfide C2-C12; K16 side chain bears (15-carboxy-pentadecanoyl)-[(Piperazine-1-yl)-acetyl][Peg3][Peg3]
- IC50[nM], inhibition of hemolysis [3]: < 500 nM

B2: Compound 94 (peptide)
peptide: Ac-ICIWQDWGEHRCTEGEK([AEEA-AEEA-γGlu-C16 diacid])-NH2
modifications: disulfide 2-12
SMILES: CC[C@H](C)[C@H](NC(C)=O)C(=O)N[C@H]1CSSC[C@@H](C(=O)N[C@H](C(=O)N[C@@H](CCC(=O)O)C(=O)NCC(=O)N[C@@H](CCC(=O)O)C(=O)N[C@@H](CCCCNC(=O)COCCOCCNC(=O)COCCOCCNC(=O)CC[C@H](NC(=O)CCCCCCCCCCCCCCC(=O)O)C(=O)O)C(N)=O)[C@@H](C)O)NC(=O)[C@H](CCCNC(=N)N)NC(=O)[C@H](Cc2c[nH]cn2)NC(=O)[C@H](CCC(=O)O)NC(=O)CNC(=O)[C@H](Cc2c[nH]c3ccccc23)NC(=O)[C@H](CC(=O)O)NC(=O)[C@H](CCC(N)=O)NC(=O)[C@H](Cc2c[nH]c3ccccc23)NC(=O)[C@H]([C@@H](C)CC)NC1=O
- IC50[nM], inhibition of hemolysis [3]: < 500 nM

B3: Compound 4 (peptide)
peptide: Ac-ICI[Trp(1-Me)]QDWGEHRCT-NH2
modifications: disulfide 2-12
SMILES: CC[C@H](C)[C@H](NC(C)=O)C(=O)N[C@H]1CSSC[C@@H](C(=O)N[C@H](C(N)=O)[C@@H](C)O)NC(=O)[C@H](CCCNC(=N)N)NC(=O)[C@H](Cc2c[nH]cn2)NC(=O)[C@H](CCC(=O)O)NC(=O)CNC(=O)[C@H](Cc2c[nH]c3ccccc23)NC(=O)[C@H](CC(=O)O)NC(=O)[C@H](CCC(N)=O)NC(=O)[C@H](Cc2cn(C)c3ccccc23)NC(=O)[C@H]([C@@H](C)CC)NC1=O
- IC50[nM], inhibition of hemolysis [3]: < 100 nM
